From patent US7037644B1, “Means and methods for monitoring non-nucleoside reverse transcriptase inhibitor antiretroviral therapy and guiding therapeutic decisions in the treatment of HIV/AIDS” (ViroLogic, Inc., priority 1998, dated 2006)
Several values for one entry are separate records, joined by “and”; a condition that tells them apart may be missing. Equal entries are not always repeated.

Tests used:
Type in all cases: cell-based, HIV-1
[1] = tested on: RTV-1033, patient 98-1033 (RT V106A, V189L, F227L); assay: Phenotypic susceptibility assay (patient RTV); conditions: patient RTV pool
From the text: (§1) The resistance test vectors containing a functional luciferase gene cassette were constructed and host cells were transfected with the resistance test vector DNA. The resistant test vectors contained patient-derived reverse transcriptase and protease sequences that were either susceptible or resistant to the antiretroviral agents, such as nucleoside reverse transcriptase inhibitors, non-nucleoside reverse transcriptase inhibitors and protease inhibitors. The resistance test vector viral particles produced by transfecting the resistance test vector DNA into host cells, either in the presence or absence of protease inhibitors, were used to infect target host cells grown either in the absence of NRTI or NNRTI or in the presence of increasing concentrations of the drug. The amount of luciferase activity produced in infected target host cells in the presence of drug was compared to the amount of luciferase produced in infected target host cells in the absence of drug. Drug resistance was measured as the amount of drug required to inhibit by 50% the luciferase activity detected in the absence of drug (inhibitory concentration 50%, IC50). The IC50 values were determined by plotting percent drug inhibition vs. log10 drug concentration.
(§2) Host cells were seeded in 10-cm-diameter dishes and were transfected several days after plating with resistance test vector plasmid DNA and the envelope expression vector. Transfections were performed using a calcium-phosphate precipitation procedure. The cell culture media containing the DNA precipitate was replaced with fresh medium, from one to 24 hours, after transfection. Cell culture media containing resistance test vector viral particles was harvested one to four days after transfection and was passed through a […] filter before being stored at […]. HIV capsid protein (p24) levels in the harvested cell culture media were determined by an EIA method as described by the manufacturer (SIAC; Frederick, Md.). Before infection, target cells (293 and 293/T) were plated in cell culture media. Control infections were performed using cell culture media from mock transfections (no DNA) or transfections containing the resistance test vector plasmid DNA without the envelope expression plasmid. One to three or more days after infection the media was removed and cell lysis buffer (Promega) was added to each well. Cell lysates were assayed for luciferase activity (FIG. 3). The inhibitory effect of the drug was determined using the following equation: % luciferase inhibition=1−(RLUluc [drug]÷RLUluc)×100 where RLUluc [drug] is the relative light unit of luciferase activity in infected cells in the presence of drug and RLUluc is the Relative Light Unit of luciferase activity in infected cells in the absence of drug. IC50 values were obtained from the sigmoidal curves that were generated from the data by plotting the percent inhibition of luciferase activity vs. the log10 drug concentration. The drug inhibition curves are shown in (FIG. 3).
A resistance test vector was constructed as described in Example 1 from a patient sample designated 98-1033. […]

[2] = tested on: RTV-B clone 1 (RT A98G, G190S); assay: Phenotypic susceptibility assay (patient RTV); conditions: below 1 = increased susceptibility
From the text: as §1, with “Drug resistance was measured as the amount of drug required to inhibit by 50% the luciferase activity detected in the absence of drug (inhibitory concentration 50%, IC50).” left out
Host cells were seeded in 10-cm-diameter dishes and were transfected several days after plating with resistance test vector plasmid DNA and the envelope expression vector. […] HIV capsid protein (p24) levels in the harvested cell culture media were determined by an EIA method as described by the manufacturer (SIAC; Frederick, Md.). […] The inhibitory effect of the drug was determined using the following equation: % luciferase inhibition=1−(RLUluc [drug]÷RLUluc)×100 where RLUluc [drug] is the relative light unit of luciferase activity in infected cells in the presence of drug and RLUluc is the Relative Light Unit of luciferase activity in infected cells in the absence of drug. […]
A resistant test vector was constructed as described in Example 1 from a patient sample designated B. The anti-retroviral treatment this patient received is unknown. […] An IC50 was determined for the resistance test vector clone for each drug tested. […]

[3] = tested on: V106A-Y181C-F227L-RTV; assay: Phenotypic susceptibility assay (site directed mutant RTV); conditions: for loss of susceptibility (fold, IC50) vs wild type control RTV: V106A, Y181C and F227L; for change in susceptibility: mutations at 106 and 181 and 227
From the text: as §1, §2
(§3) The mutations V106A, V189L, V181C an F227L were introduced alone and in combination into resistance test vectors using the mega-primer method for site-directed mutagenesis (Sakar and Sommar, Ibid.). Resistance test vectors containing the V106A mutation (V106A-RTV), the V189L mutation (V189L-RTV), the V181C mutation (V181C-RTV) and E227L mutation (F2271-RTV) and two mutations (V106A-Y181C-RTV) and (V106A-V189L-RTV) and (V106A-F227-RTV) and (V181C-F227-RTV) and three mutations, (V106A-Y181C-F227L-RTV) were then tested using the phenotypic assay described earlier and the results were compared to those determined using a genetically defined resistance test vector that was wild type at positions 106, 189, 181 and 227. We determined the pattern of phenotypic susceptibility to the NNRTIs, delavirdine, nevirapine and efavirenz, in all nine vectors.

[4] = tested on: F227L-RTV; assay: as above; conditions: F227L alone; below 1 = increased susceptibility
From the text: as §1, §2, §3

[5] = tested on: V106A-F227-RTV; assay: as above; conditions: for loss of susceptibility (fold, IC50) vs wild type control RTV: V106A and F227L; for change in susceptibility: mutations at 106 and 227
From the text: as §1, §2, §3

[6] = tested on: G190A-RTV; assay: as above; conditions: for change in susceptibility: alanine at position 190, no other NNRTI mutations
From the text: as §1
as §2, with “IC50 values were obtained from the sigmoidal curves that were generated from the data by plotting the percent inhibition of luciferase activity vs. the log10 drug concentration. The drug inhibition curves are shown in (FIG. 3).” left out

[7] = tested on: G190S-RTV; assay: as above; conditions: for change in susceptibility (fold, IC50) vs wild type control RTV: G190S alone, below 1 = increased susceptibility; for change in susceptibility: serine at position 190, no other NNRTI mutations
From the text: as §1, §2
Resistance test vectors were constructed containing the G190S and G190A mutations. Mutations were introduced into the resistance test vector using the mega-primer PCR method for site-directed mutagenesis (Sakar and Sommar, Ibid.) Resistance test vectors containing the G190S or G190A mutations (G190S-RTV, or G190A-RTV) were tested using the phenotypic susceptibility assay and the results were compared to that of a genetically defined resistance test vector that was wild type at position G190. […]

Row | Structure (SMILES) | decrease in susceptibility (fold, IC50) [1] | change in susceptibility (fold, IC50) [2] [fold] | loss of susceptibility (fold, IC50) vs wild type control RTV [3] | change in susceptibility [3] | change in susceptibility (fold, IC50) vs wild type control RTV [4] | loss of susceptibility (fold, IC50) vs wild type control RTV [5] | change in susceptibility [5] | change in susceptibility [6] | change in susceptibility ([6]; listed as delviridine) | change in susceptibility (fold, IC50) vs wild type control RTV [7] | change in susceptibility [7] | change in susceptibility (fold, IC50) vs wild type control RTV ([6]; G190A alone) [fold]
1 | CC(C)Nc1cccnc1N1CCN(C(=O)c2cc3cc(NS(C)(=O)=O)ccc3[nH]2)CC1 [delavirdine] | 30 fold | 0.55 | 50 fold | moderate decrease | 0.03 fold | 3 fold | slight decrease | increase | increased susceptibility | 0.5 fold | increase | 
2 | O=C1Nc2ccc(Cl)cc2[C@@](C#CC2CC2)(C(F)(F)F)O1 [efavirenz] | 200 fold | 250 | 12 fold | slight decrease | 0.48 fold and 0.4 fold | 8 fold | slight decrease |  |  | 8 fold and 7.6 fold |  | 8
3 | Cc1ccnc2c1NC(=O)c1cccnc1N2C1CC1 [nevirapine] | greater than 800 fold | 640 | greater than 800 fold | substantial decrease | 3 fold | greater than 800 fold | substantial decrease | decrease |  | 75 fold | decrease | 
